# Results: patent US20120022083A1, “SMALL MOLECULE MODULATORS OF CELL ADHESION” (ADHEREX TECHNOLOGIES, INC., priority 2008, published 2012)
# T1: Ncad-Fc protein (chicken N-cadherin ectodomain fused to the Fc fragment of mouse IgG2b) (Gallus gallus, UniProt P10288)
# T1 construct: chicken N-cadherin ectodomain fused to the Fc fragment of mouse IgG2b
# T1 sequence (P10288 165-729 limits assumed): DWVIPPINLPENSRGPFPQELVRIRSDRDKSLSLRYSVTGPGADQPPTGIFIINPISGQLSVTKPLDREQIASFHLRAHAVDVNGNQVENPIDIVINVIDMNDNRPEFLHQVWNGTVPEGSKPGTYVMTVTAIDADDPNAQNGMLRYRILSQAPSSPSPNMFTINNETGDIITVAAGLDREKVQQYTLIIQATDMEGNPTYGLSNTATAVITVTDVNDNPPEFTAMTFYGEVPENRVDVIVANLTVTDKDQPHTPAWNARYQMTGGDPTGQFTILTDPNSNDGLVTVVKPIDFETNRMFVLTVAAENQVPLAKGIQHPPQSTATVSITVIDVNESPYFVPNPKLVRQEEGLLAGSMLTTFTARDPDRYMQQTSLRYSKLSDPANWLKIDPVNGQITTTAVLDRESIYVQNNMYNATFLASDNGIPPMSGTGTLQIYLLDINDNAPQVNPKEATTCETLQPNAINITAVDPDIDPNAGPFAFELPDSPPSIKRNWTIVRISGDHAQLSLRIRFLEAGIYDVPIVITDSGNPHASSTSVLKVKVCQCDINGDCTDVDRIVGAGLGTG
# B1: Ncad-Fc protein (chicken N-cadherin ectodomain fused to the Fc fragment of mouse IgG2b) (Fc fusion, UniProt P10288 165-729, looked up)
# chain: T1 sequence (P10288 165-729 limits assumed)
# notes: extracellular domain; Captured on magnetic Dynabeads Protein A for the bead-bead aggregation assay; also called N-cadherin coated Dynabeads; not shown: Fc fragment of mouse IgG2b
# Molecular target: T1, Ncad-Fc protein (chicken N-cadherin ectodomain fused to the Fc fragment of mouse IgG2b)
# Experiment: Ncad-Fc bead-bead aggregation assay
# Assay type: biochemical
# Settings: N-cadherin coated Dynabeads, 30 minutes to 1 hour at 37° C.
# Method: Compounds of the invention were assayed according to the following procedures.
# (§1) 10 μl of magnetic Dynabeads® Protein A (Prod. No. 100.01) were pipetted into a 1.5 ml eppendorf tube and washed with 0.5 ml of PBS (1×), 0.1% Tween 20, and 2 mM EGTA using the Dynal MPC-S Magnetic Particle Concentrator. Supernatant was aspirated, the magnet was removed and beads were washed once more with same buffer using the Dynal MPC-S Magnetic Particle Concentrator. Following this supernatant was once again removed and the beads were resuspended in 10 μl of PBS (1×), 0.1% Tween 20, and 2 mM EGTA buffer.
# (§2) An equal 10 ul volume of Ncad-Fc protein (0.25 mg/10 μl, chicken N-cadherin ectodomain fused to the Fc fragment of mouse IgG2b) or human Fc (Jackson Immunoresearch, concentration 2.3 mg/ml) suspended in PBS (1×), 0.1% Tween 20, 2 mM EGTA and 1% BSA (Sigma, Prod. No. A0281) was added and incubated for 1-2 hours at room temperature on the Vortex Genie 2, followed by three washes in 0.5 ml of the same buffer. The beads were then resuspended in 80 μl PBS (1×) plus 1% BSA (dilution 1/8) and kept on ice.
# The aggregation assay was performed in duplicates in 12 well/6 mm slides (CEL-LINE/ERIE SCIENTIFIC CO. Prod. No. 10-103). Experimentation was conducted in eppendorf tubes containing […] of DMEM medium ([…] glucose, Gibco Prod. No. 21 885-025)+10% Fetal Calf Serum (FCS) containing an N-cadherin inhibitor or calcium chelator (EDTA, EGTA) with the addition of 4 μl of N-cadherin coated Dynabeads®. The resulting bead solutions were gently mixed on ice followed by 50 μl of solution deposited per well.
# Slides were incubated for 30 minutes to 1 hour at 37° C. and 5% CO2. After incubation two images per well were recorded on an inverted microscope (Nikon Diaphot) at 20× magnification, with an 8 Volt illumination using a Nikon D100. Images were analyzed using the Bead Counting software program from Metamorph (Meta Imaging Series 6.2r6).
# In this assay, in the absence of inhibitor, the beads bind to each other and aggregate due to dimerization of the N-cadherin molecules on the surfaces of the beads. Accordingly, compounds effective for disrupting N-cadherin-mediated cell adhesion can be identified on the basis of whether they disrupt bead-bead aggregation in this assay.
row,active in Ncad-Fc bead-bead aggregation assay (disrupt bead-bead aggregation),Molecule
1,active,"Cc1nnc(-c2cccs2)[nH]1 [compound 68-1, 3-Methyl-5-Thiophen-2-Yl-4H-[1,2,4]Triazole]"
2,active,"CCc1nnc(-c2ccc(C(C)(C)C)cc2)[nH]1 [compound 1-1, 3-(4-Tert-Butylphenyl)-5-Ethyl-4H-[1,2,4]Triazole]"
3,active,"Cc1cccc(-c2nnc(C)[nH]2)c1 [compound 5-1, 3-Methyl-5-M-Tolyl-4H-[1,2,4]Triazole]"
4,active,"Cc1nnc(-c2ccc(C(C)(C)C)cc2)[nH]1 [compound 53-1, 3-(4-Tert-Butylphenyl)-5-Methyl-4H-[1,2,4]Triazole]"
5,active,"Cc1nnc(-c2cccnc2)[nH]1 [compound 66-1, 3-(5-Methyl-4H-[1,2,4]Triazol-3-Yl)-Pyridine]"
6,active,"Cc1nnc(-c2ccncc2)[nH]1 [compound 67-1, 4-(5-Methyl-4H-[1,2,4]Triazol-3-Yl)-Pyridine]"
7,active,"Cc1nnc(-c2ccccn2)[nH]1 [compound 65-1, 2-(5-Methyl-4H-[1,2,4]Triazol-3-Yl)-Pyridine]"
8,active,"COc1cccc(-c2nnc(C)[nH]2)c1 [compound 11-1, 3-(3-Methoxyphenyl)-5-Methyl-4H-[1,2,4]Triazole]"
9,active,"Cc1nnc(-c2ccc(Cl)cc2)[nH]1 [compound 9-1, 3-(4-Chlorophenyl)-5-Methyl-4H-[1,2,4]Triazole]"
10,active,"CC(C)(C)c1ccc(-c2nnc(N)[nH]2)cc1 [compound 50-1, 5-(4-Tert-Butylphenyl)-4H-[1,2,4]Triazol-3-Ylamine]"
11,active,"Cc1nnc(-c2cccc(Cl)c2)[nH]1 [compound 8-1, 3-(3-Chlorophenyl)-5-Methyl-4H-[1,2,4]Triazole]"
12,active,"COc1ccc(-c2nnc(C)[nH]2)cc1 [compound 12-1, 3-(4-Methoxyphenyl)-5-Methyl-4H-[1,2,4]Triazole]"
13,active,"Cc1nnc(Cc2ccccc2)[nH]1 [compound 10-1, 3-Benzyl-5-Methyl-4H-[1,2,4]Triazole]"
14,active,"Cc1nnc(-c2ccc(Cl)c(Cl)c2)[nH]1 [compound 14-1, 3-(3,4-Dichlorophenyl)-5-Methyl-4H-[1,2,4]Triazole]"
15,active,"Cc1nnc(-c2ccccc2Cl)[nH]1 [compound 7-1, 3-(2-Chlorophenyl)-5-Methyl-4H-[1,2,4]Triazole]"

# System: retinal explants on substrate protein (Human N-cadherin-Fc or Laminin)
# Experiment: Culture of retinal explants and quantification of neurite outgrowth
# Assay type: cell-based, White Leghorn chick
# Settings: embryonic day 8 chick retina explants, examined approximately 20 hours after plating
# From the text: Tissue culture dishes were coated with nitrocellulose and allowed to dry (Lagenaur and Lemmon, [citation?] 1987). Substrate protein (Human N-cadherin-Fc or Laminin) was spread across the central region of each dish. Retinal explant cultures were made according to a previously described procedure (Halfter, W. et al., Dev. Biol., 95:56-64, 1983; Drazba, J. and Lemmon, V., Dev. Biol., 138:82-93, 1990). In brief, embryonic day 8 (stage 32-34 according to Hamburger and Hamilton, [citation?] 1951) White Leghorn chick eyes were dissected and the retina was flattened with the photoreceptor side down onto black nitrocellulose filters that had previously been incubated in concanavalin A. The filter was then cut into strips perpendicular to the optic fissure. Strips were inverted onto substrate-coated culture dishes so that the gang lion cell layer was directly adjacent to the substratum. N-cadherin small molecule antagonists were diluted in the culture medium and added at the time of plating. Neurite outgrowth was examined at approximately 20 hours after plating.
# Neurite outgrowth from retina explants was catalogued using a SPOT RT digital camera and image acquisition software. The length of the five longest neurites per explant were measured (Burden-Gulley, S. M. and Brady-Kalnay, S. M. J. Cell Biol., 144:1323-1336, 1999). To measure neurite density, the region of neurite outgrowth was outlined to define the region of interest and the neurites were highlighted using Metamorph software. Data from similar experimental conditions were combined, analyzed by Student's t test and plotted.
row,Molecule,inhibit neurite outgrowth
1,"CC(C)(C)c1ccc(-c2nnc(Cc3ccccc3)[nH]2)cc1 [compound 26-1, 3-Benzyl-5-(4-Tert-Butylphenyl)-4H-[1,2,4]Triazole]",inhibit neurite outgrowth
2,"CC(C)(C)c1ccc(-c2nnc(-c3cnccn3)[nH]2)cc1 [compound 28-1, 2-[5-(4-Tert-Butylphenyl)-4H-[1,2,4]Triazol-3-Yl]-Pyrazine]",inhibit neurite outgrowth
3,"CCc1nnc(-c2ccc(C(C)(C)C)cc2)[nH]1 [compound 1-1, 3-(4-Tert-Butylphenyl)-5-Ethyl-4H-[1,2,4]Triazole]",inhibit neurite outgrowth
4,COc1ccc(-c2nnc(S)[nH]2)cc1 [compound 69-2],inhibit neurite outgrowth
5,"Cc1nnc(-c2ccc(C(C)(C)C)cc2)[nH]1 [compound 53-1, 3-(4-Tert-Butylphenyl)-5-Methyl-4H-[1,2,4]Triazole]",inhibit neurite outgrowth
6,"Cc1cnc(-c2ccc(C(C)(C)C)cc2)[nH]1 [compound 64-1, 2-(4-Tert-Butylphenyl)-5-Methyl-1H-Imidazole]",inhibit neurite outgrowth
7,"CC(C)c1nnc(-c2ccc(C(C)(C)C)cc2)[nH]1 [compound 21-1, 3-(4-Tert-Butylphenyl)-5-Isopropyl-4H-[1,2,4]Triazole]",inhibit neurite outgrowth
8,Sc1nnc(-c2cccs2)[nH]1 [compound 69-4],inhibit neurite outgrowth
9,"CC(C)(C)c1ccc(-c2nnc(C3CC3)[nH]2)cc1 [compound 22-1, 3-(4-Tert-Butylphenyl)-5-Cyclopropyl-4H-[1,2,4]Triazole]",inhibit neurite outgrowth
10,"CC(C)(C)c1ccc(-c2nnc(C3CCC3)[nH]2)cc1 [compound 25-1, 3-(4-Tert-Butylphenyl)-5-Cyclobutyl-4H-[1,2,4]Triazole]",inhibit neurite outgrowth
11,"CC(C)(C)c1ccc(-c2nnc(C(F)F)[nH]2)cc1 [compound 57-1, 3-(4-Tert-Butylphenyl)-5-Difluoromethyl-4H-[1,2,4]Triazole]",inhibit neurite outgrowth
12,"Cn1nc(-c2ccc(C(C)(C)C)cc2)nc1S [compound 46-1, 5-(4-Tert-Butylphenyl)-2-Methyl-2H-[1,2,4]Triazole-3-Thiol]",inhibit neurite outgrowth

# Molecular target: the molecule itself
# Experiment: bead-bead aggregation assay, Ncad-Fc on Protein A Dynabeads, microscopy and bead counting
# Settings: not given
# Method: as §1, §2
# The aggregation assay was performed in duplicates in 12 well/6 mm slides (CEL-LINE/ERIE SCIENTIFIC CO. Prod. No. 10-103). […]
row,Molecule,binding result
1,B1,binds
